Assay results reported in patent EP0679645A1, “Pharmacologically active CNS pyridmidin compounds” (THE WELLCOME FOUNDATION LIMITED, priority 1990, dated 1991).

Assays:
Rat Liver DHFR = target: T1, Rat Liver DHFR (Rattus norvegicus, UniProt Q920D2); test: Inhibition of rat liver DHFR enzyme activity; assay type: biochemical; conditions: P95 limits in brackets, read-out: IC₅₀(µM) Rat Liver DHFR (P95 limits)
T1 construct: from tissue; host or cells: rat liver
T1 sequence (Q920D2 1-187): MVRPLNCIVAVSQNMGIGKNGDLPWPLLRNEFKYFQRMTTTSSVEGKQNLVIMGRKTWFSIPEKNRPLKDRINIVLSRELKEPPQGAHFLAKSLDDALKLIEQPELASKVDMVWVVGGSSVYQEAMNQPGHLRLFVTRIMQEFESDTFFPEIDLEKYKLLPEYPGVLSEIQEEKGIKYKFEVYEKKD
Procedure: (§1) Compounds according to the invention were tested for their effect on veratrine-evoked release of glutamate from rat brain slices according to the protocol described in Epilepsia 27(5): 490-497, 1986. The protocol for testing for inhibition of DHFR activity was a modification of that set out in Biochemical Pharmacology Vol. 20 pp 561-574, 1971.
(§2) The results are given in Table 1, the IC₅₀ being the concentration of compound to cause 50% inhibition of (a) veratrine-evoked release of glutamate and (b) of DHFR enzyme activity.

[1] = test system: veratrine-evoked release of glutamate; test: Inhibition of veratrine-evoked release of glutamate from rat brain slices; assay type: cell-based; conditions: P95 limits in brackets, read-out: IC₅₀(µM) Glutamate Release (P95 limits)
Procedure: as §1, §2

Half-life in the rat = assay type: in vivo; conditions: statement in words

SMILES | IC50 (Rat Liver DHFR) | IC50 [1] | half-life in the rat (Half-life in the rat)
Nc1ncc(-c2cc(Cl)c(I)c(Cl)c2Cl)c(N)n1 [Compound 9, 2,4-Diamino-5-(4-iodo-2,3,5-trichlorophenyl)pyrimidine] | > 100 µM | < 10 µM | –
CN1CCN(c2ncc(-c3cc(Cl)cc(Cl)c3)c(N)n2)CC1 [Compound 8, 4-Amino-5-(3,5-dichlorophenyl)-2-(4-methyl-1-piperazinyl)pyrimidine] | > 100 µM | 0.27 µM | long half-life
C[N+]1([O-])CCN(c2nc(N)c(-c3cc(Cl)cc(Cl)c3Cl)c(C(F)(F)F)n2)CC1 [Compound 10, 4-Amino-2-(4-methyl-4-oxide-1-piperazinyl)-5-(2,3,5-trichlorophenyl)-6-trifluoromethyl-pyrimidine] | > 100 µM | > 10 µM | –
COCc1nc(N2CCN(C)CC2)nc(N)c1-c1cc(Cl)cc(Cl)c1 [Compound 11, 4-Amino-5-(3,5-dichlorophenyl)-6-methoxymethyl-2-(4-methyl-1-piperazinyl)pyrimidine] | > 100 µM | < 10 µM | –
CN(C)S(=O)(=O)c1c(Cl)cc(-c2cnc(N)nc2N)c(Cl)c1Cl [Compound 12, 2,4-Diamino-5[4-(N',N'-dimethylsulphamoyl)-2,3,5-trichlorophenyl]pyrimidine] | 13.8 µM | < 10 µM | –
CCCCN1CCN(c2ncc(-c3cc(Cl)cc(Cl)c3Cl)c(N)n2)CC1 [Compound 28, 4-Amino-2-(4-n-butyl-1-piperazinyl)-5-(2,3,5-trichlorophenyl)pyrimidine] | > 100 µM | < 10 µM | –
CCN1CCN(c2ncc(-c3cc(Cl)cc(Cl)c3Cl)c(N)n2)CC1 [Compound 29, 4-Amino-2-(4-ethyl-1-piperazinyl)-5-(2,3,5-trichlorophenyl)pyrimidine] | > 100 µM | 2.56 µM | –
Cc1nc(N2CCN(C)CC2)nc(N)c1-c1cc(Cl)c(Cl)c(Cl)c1 [Compound 4, 4-Amino-2-(4-methyl-1-piperazinyl)-6-methyl-5-(3,4,5-trichlorophenyl)pyrimidine] | 100 µM | < 10 µM | –
Cc1nc(N)nc(N)c1-c1c(Cl)ccc(Cl)c1Cl [Compound 2, 2,4-Diamino-6-methyl-5-(2,3,6-trichlorophenyl)pyrimidine] | > 100 µM | < 10 µM | –
Nc1ncc(-c2cc(Cl)c(Cl)c(Cl)c2Cl)c(N)n1 [Compound 15, 2,4-Diamino-5-(2,3,4,5-tetrachlorophenyl)pyrimidine] | > 100 µM | < 10 µM | –
Nc1nc(N)c(-c2cc(Cl)c(N)c(Cl)c2)c(C(F)(F)F)n1 [Compound 27, 2,4-Diamino-5-(3,5-dichloro-4-aminophenyl)-6-trifluoromethyl pyrimidine] | 1.54 µM | 10 µM | –
Nc1ncc(-c2cccc(Cl)c2Cl)c(N2CCOCC2)n1 [Compound 21, 2-Amino-5-(2,3-dichlorophenyl)-4-(N-morpholino)pyrimidine] | > 100 µM | 10 µM | –
CCCN1CCN(c2ncc(-c3cc(Cl)cc(Cl)c3Cl)c(N)n2)CC1 [Compound 17, 4-Amino-2-(4-n-propyl-1-piperazinyl)-5-(2,3,5-trichlorophenyl)pyrimidine] | > 100 µM | 2.17 µM | –
Nc1nc(N2CCN(Cc3ccccc3)CC2)ncc1-c1cc(Cl)cc(Cl)c1Cl [Compound 22, 4-Amino-2-(4-benzyl-1-piperazinyl)-5-(2,3,5-trichlorophenyl)pyrimidine] | < 100 µM | > 10 µM | –
CN1CCN(c2nc(N)ncc2-c2cccc(Cl)c2Cl)CC1 [Compound 20, 2-Amino-5-(2,3-dichlorophenyl)-4-(4-methyl-1-piperazinyl)pyrimidine] | > 100 µM | 10 µM | –
CC(C)N1CCN(c2ncc(-c3cc(Cl)cc(Cl)c3Cl)c(N)n2)CC1 [Compound 30, 4-Amino-2-(4-isopropyl-1-piperazinyl)-5-(2,3,5-trichlorophenyl)pyrimidine] | 100 µM | < 10 µM | –
C[N+]1([O-])CCN(c2ncc(-c3cc(Cl)cc(Cl)c3Cl)c(N)n2)CC1 [Compound 18, 4-Amino-2-(4-methyl-4-oxide-1-piperazinyl)-5-(2,3,5-trichlorophenyl)pyrimidine] | > 100 µM | > 10 µM | –
Nc1nc(N)c(-c2cc(Cl)cc(Cl)c2)c(C(F)(F)F)n1 [Compound 1, 2,4-Diamino-5-(3,5-dichlorophenyl)-6-trifluoromethyl pyrimidine] | 4.59 µM | < 10 µM | –
CCN1CCN(c2nc(N)c(-c3cc(Cl)cc(Cl)c3)c(C(F)(F)F)n2)CC1 [Compound 32, 4-Amino-2-(4-ethyl-1-piperazinyl)-5-(3,5-dichlorophenyl)-6-trifluoromethyl pyrimidine] | > 100 µM | 2.43 µM | –
Cc1nc(N)nc(N)c1-c1cc(Cl)c(N)c(Cl)c1 [Compound 26, 2,4-Diamino-5-(3,5-dichloro-4-aminophenyl)-6-methyl pyrimidine] | 0.034 µM | < 10 µM | –
C[C@@H]1CN(c2ncc(-c3cc(Cl)cc(Cl)c3Cl)c(N)n2)C[C@H](C)N1 [Compound 16, cis 4-Amino-2-(3,5-dimethyl-1-piperazinyl)-5-(2,3,5-trichlorophenyl)pyrimidine] | > 100 µM | 10 µM | –
Cc1nc(N)nc(N)c1-c1cc(Cl)cc(Cl)c1[N+](=O)[O-] [Compound 19, 2,4-Diamino-5-(3,5-dichloro-2-nitrophenyl)-6-methyl-pyrimidine] | 5.56 µM | < 10 µM | –
CN1CCN(c2nc(N)c(-c3cc(Cl)cc(Cl)c3)c(C(F)(F)F)n2)CC1 [Compound 14, 4-Amino-5-(3,5-dichlorophenyl)-2-(4-methyl-1-piperazinyl)-6-trifluoromethyl pyrimidine] | > 100 µM | 0.137 µM | –
Nc1ncc(-c2cc(Cl)c(N)c(Cl)c2Cl)c(N)n1 [Compound 3, 2,4-Diamino-5-(4-amino-2,3,5-trichlorophenyl)pyrimidine] | > 100 µM | 2.5 µM | –
Cc1nc(N)nc(N)c1-c1cc(Cl)c(Cl)c(Cl)c1 [Compound 5, 2,4-Diamino-5-(3,4,5-trichlorophenyl)-6-methyl pyrimidine] | < 100 µM | < 10 µM | –
Nc1nc(N2CCN(C3CC3)CC2)ncc1-c1cc(Cl)cc(Cl)c1Cl [Compound 31, 4-Amino-2-(4-cyclopropyl-1-piperazinyl)-5-(2,3,5-trichlorophenyl)pyrimidine] | > 100 µM | 10 µM | –
Nc1ncc(-c2cc(Cl)c(N)c(Cl)c2)c(N)n1 [Compound 25, 2,4-Diamino-5-(3,5-dichloro-4-aminophenyl)pyrimidine] | 0.034 µM | > 10 µM | –
CC(C)Nc1ncc(-c2cc(Cl)cc(Cl)c2Cl)c(N)n1 [Compound 7, 4-Amino-2-(2-iso-propylamino)-5-(2,3,5-trichlorophenyl)pyrimidine] | > 100 µM | < 10 µM | –
CCN(CC)c1ncc(-c2cc(Cl)cc(Cl)c2Cl)c(N)n1 [Compound 6, 4-Amino-2-diethylamino-5-(2,3,5-trichlorophenyl)pyrimidine] | > 100 µM | 10 µM | –
